Laboratory results as given in US6562861B1 (priority 1997, dated 2003).
pIC50: −log10 of the molar value. Structures can show the parent of a compound that is named as a salt.

Tests used:
[1] = biological target: Flu B neuraminidase (Influenza B virus, UniProt P03474); experiment: biochemical; conditions: neuraminidase enzyme inhibition data (IC50 values) Flu B
[2] = biological target: neuraminidase from the H1N9 strain of influenza (Influenza A virus, UniProt P03472); experiment: biochemical; conditions: neuraminidase enzyme inhibition data (IC50 values) Flu A
Chain of neuraminidase from the H1N9 strain of influenza (P03472 83-470 limits assumed): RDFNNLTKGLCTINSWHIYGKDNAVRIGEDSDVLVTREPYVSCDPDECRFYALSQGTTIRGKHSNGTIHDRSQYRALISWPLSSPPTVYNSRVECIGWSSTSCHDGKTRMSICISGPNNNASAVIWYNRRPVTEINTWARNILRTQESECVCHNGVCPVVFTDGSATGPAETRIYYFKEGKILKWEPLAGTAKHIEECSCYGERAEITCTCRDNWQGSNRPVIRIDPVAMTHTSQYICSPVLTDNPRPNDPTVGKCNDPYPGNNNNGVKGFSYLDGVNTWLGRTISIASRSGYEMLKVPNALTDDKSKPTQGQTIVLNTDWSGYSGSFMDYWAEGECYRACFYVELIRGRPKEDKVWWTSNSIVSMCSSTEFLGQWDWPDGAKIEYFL

Chain of Flu B neuraminidase (P03474 whole entry): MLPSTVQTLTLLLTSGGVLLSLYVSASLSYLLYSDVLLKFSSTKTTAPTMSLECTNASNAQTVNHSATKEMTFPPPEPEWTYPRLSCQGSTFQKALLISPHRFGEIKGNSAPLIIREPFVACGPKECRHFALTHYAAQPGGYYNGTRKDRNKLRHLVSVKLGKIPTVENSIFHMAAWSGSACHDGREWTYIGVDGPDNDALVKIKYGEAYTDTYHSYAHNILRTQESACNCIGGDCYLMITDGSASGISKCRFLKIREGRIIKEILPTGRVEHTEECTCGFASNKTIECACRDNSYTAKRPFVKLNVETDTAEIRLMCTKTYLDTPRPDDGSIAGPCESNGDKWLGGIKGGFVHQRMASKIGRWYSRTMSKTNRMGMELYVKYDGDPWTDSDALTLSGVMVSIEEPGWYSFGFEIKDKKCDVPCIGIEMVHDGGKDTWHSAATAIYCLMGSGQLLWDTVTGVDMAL

CCC(CC)C(NC(C)=O)C1CC(C(=O)O)CC1O (single isomer, unassigned) [Compound 65, (±) t-3-(1′-Acetylamino-2′-ethyl)butyl-t-4-hydroxycyclopentan-r-1-carboxylic Acid]
pIC50 [1]: 4.00 to 6.00 | pIC50 [2]: 4.00 to 6.00

CCC(CC)C(NC(C)=O)C1CC(C(=O)O)CC1N (single isomer, unassigned) [Compound 86, (±) t-3-[(1′-Acetylamino-2′-ethyl)butyl]-c-4-aminocyclopentan-r-1-carboxylic Acid]
pIC50 [1]: 4.00 to 6.00 | pIC50 [2]: 4.00 to 6.00

CCC(CC)C(NC(C)=O)C1C(N)CC(C(=O)O)C1O (single isomer, unassigned) [Compound 162, (±)-t-3-(1′-Acetylamino-2′-ethyl)butyl-c-4-amino-t-2-hydroxycyclopentan-r-1-carboxylic Acid]
pIC50 [1]: > 6.00 | pIC50 [2]: > 6.00

CCCC(CCC)C(NC(C)=O)C1C(N)CC(C(=O)O)C1O (single isomer, unassigned) [Compound 163, (±)-t-3-(1′-Acetylamino-2′-propyl)pentyl-c-4-amino-t-2-hydroxycyclopentan-r-1-carboxylic Acid]
pIC50 [1]: > 6.00 | pIC50 [2]: > 6.00

CCCCC(NC(C)=O)C1C(N)CC(C(=O)O)C1O (single isomer, unassigned) [Compound 165]
pIC50 [1]: 4.00 to 6.00 | pIC50 [2]: 4.00 to 6.00

CCC(C)C(NC(C)=O)C1C(N)CC(C(=O)O)C1O (single isomer, unassigned) [Compound 166, (±)-t-3-(1′-Acetylamino-2′-methyl)butyl-c-4-amino-t-2-hydroxycyclopentan-r-1-carboxylic Acid]
pIC50 [1]: 4.00 to 6.00 | pIC50 [2]: > 6.00

CCC(CC)C(NC(C)=O)C1C(NC(=N)N)CC(C(=O)O)C1O (single isomer, unassigned) [Compound 179, (±)-t-3-(1′-Acetylamino-2′-ethyl)butyl-c-4-[(amino-imino)methyl]amino-t-2-hydroxycyclopentan-r-1-carboxylic Acid]
pIC50 [2]: > 6.00

CCC(CC)CC(NC(C)=O)C1C(NC(=N)N)CC(C(=O)O)C1O (single isomer, unassigned) [Compound 180, (±)-t-3-(1′-Acetylamino-3′-ethyl)pentyl-c-4-[(amino-imino)methyl]amino-t-2-hydroxycyclopentan-r-1-carboxylic Acid]
pIC50 [1]: > 6.00 | pIC50 [2]: > 6.00

CCCCC(NC(C)=O)C1C(NC(=N)N)CC(C(=O)O)C1O (single isomer, unassigned) [Compound 181]
pIC50 [1]: > 6.00 | pIC50 [2]: > 6.00

CCC(CC)C(NC(C)=O)C1CC(C(=O)O)CC1N (single isomer, unassigned) [Compound 200, (±)-t-3-(1′-Acetylamino-2′-ethyl)butyl-c-4-aminocyclopentan-1-carboxylic Acid]
pIC50 [1]: > 6.00 | pIC50 [2]: > 6.00

CCC(CC)C(NC(C)=O)C1CC(C(=O)O)CC1NC(=N)N (single isomer, unassigned) [Compound 211, (±)-t-3-(1′-Acetylamino-2′-ethyl)butyl-c-4-[(amino-imino)methyl]-aminocyclopentan-r-1-carboxylic Acid]
pIC50 [2]: > 6.00

CCC(CC)C(NC(C)=O)[C@@H]1[C@H](O)[C@@H](C(=O)O)C[C@H]1N (stereo partly drawn) [Compound 160, (1S,2S,3R,4R,1′S)-(−)-3-(1′-Acetylamino-2′-ethyl)butyl-4-amino-2-hydroxycyclopentan-1-carboxylic Acid]
pIC50 [1]: > 6.00 | pIC50 [2]: > 6.00

CCC(CC)C(NC(C)=O)[C@@H]1[C@H](O)[C@@H](C(=O)O)C[C@H]1NC(=N)N (stereo partly drawn) [Compound 178, (1S,2S,3R,4R,1′S)-(−)-3-(1′-Acetylamino-2′-ethyl)butyl-4-[(aminoimino)methyl]amino-2-hydroxycyclopentan-1-carboxylic Acid]
pIC50 [2]: > 6.00

CCC(CC)C(NC(C)=O)[C@@H]1[C@H](O)[C@@H](C(=O)O)C[C@H]1NC(=N)NC (stereo partly drawn) [Compound 182, (1S,2S,3R,4R,1′S)-(−)-3-(1′-Acetylamino-2′-ethyl)butyl-4-[(N-methylamino-imino)methyl]amino-2-hydroxycyclopentan-1-carboxylic Acid]
pIC50 [1]: > 6.00 | pIC50 [2]: > 6.00

CCCC(CCC)C(NC(C)=O)[C@@H]1[C@H](O)[C@@H](C(=O)O)C[C@H]1NC(=N)N (stereo partly drawn) [Compound 183, (1S,2S,3R,4R,1′S)-(−)-3-(1′-Acetylamino-2′-propyl)pentyl-4-[(amino-imino)methyl]amino-2-hydroxycyclopentan-1-carboxylic Acid]
pIC50 [1]: > 6.00 | pIC50 [2]: > 6.00

CCC(CC)C(NC(C)=O)[C@@H]1C[C@@H](C(=O)O)C[C@H]1N (stereo partly drawn) [Compound 199, (1R,3R,4R,1′S)-(−)-3-(1′-Acetylamino-2′-ethyl)butyl-4-aminocyclopentan-1-carboxylic Acid]
pIC50 [1]: > 6.00 | pIC50 [2]: > 6.00

CCC(CC)C(NC(C)=O)[C@@H]1C[C@@H](C(=O)O)C[C@H]1NC(=N)N (stereo partly drawn) [Compound 209, (1R,3R,4R,1′S)-(−)-3-(1′-Acetylamino-2′-ethyl)butyl-4-(aminoimino)methyl-aminocyclopentan-1-carboxylic Acid]
pIC50 [2]: > 6.00

CCCC(CCC)C(NC(C)=O)[C@@H]1C[C@@H](C(=O)O)C[C@H]1NC(=N)N (stereo partly drawn) [Compound 210, (1R,3R,4R,1′S)-(−)-3-(1′-Acetylamino-2′-propyl)pentyl-4-[(amino-imino)methyl]aminocyclopentan-1-carboxylic Acid]
pIC50 [1]: > 6.00 | pIC50 [2]: > 6.00

CCC(CC)C(NC(C)=O)[C@@H]1C[C@@H](C(=O)O)C[C@H]1NC(=N)NC (stereo partly drawn) [Compound 212, (1R,3R,4R,1′S)-(−)-3-(1′-Acetylamino-2′-ethyl)butyl-4-[(N-methylamino-imino)methyl]aminoclopentan-1-carboxylic Acid]
pIC50 [1]: > 6.00 | pIC50 [2]: > 6.00

CCC(CC)C(NC(C)=O)[C@@H]1C=C(C(=O)O)C[C@H]1NC(=N)N (stereo partly drawn) [Compound 219, (3R,4R,1′S)-(−)-3-(1′-Acetylamino-2′-ethyl)butyl-4-[(amino-imino)methyl]amino-cyclopent-1-en-1-carboxylic Acid Hydrochloride]
pIC50 [1]: > 6.00 | pIC50 [2]: > 6.00
